Measurements as given in US20260166182A1, “CYANINE-BASED FLUOROPHORES” (The General Hospital Corporation, priority 2022, published 2026).
“And” between values parts separate entries of the source, which are not always exact repeats. Equal entries are not always repeated.

How the values were obtained:
[1] = system: immune cells from bone marrow and tumor tissues; experiment: Flow cytometry analysis of fluorophore-targeted immune cells from bone marrow and tumor; format: in vivo, mouse
Method: Flow cytometry analysis: Bone marrow tissue was mechanically dissociated and digested with collagenase D (175 unit/mL, Roche) and DNase I (100 unit/mL, Roche) followed by EDTA (2 mM, Invitrogen). Erythrocytes were removed using RBC Lysis Buffer (Invitrogen). Tumor tissue was mechanically dissociated and digested with collagenase I (175 unit/mL, Thermo-fisher), Collagenase IV (250 unit/mL, Thermo-fisher, 1700019), and DNase I (100 unit/mL) followed by EDTA ([…]). Immune cells were isolated from cell suspensions of the bone marrow or tumor tissue using Ficoll® Paque Plus (GE Healthcare). Isolated cells were stained with anti-mouse F4/80 (BM8, Biolegend, 123131), anti-mouse Ly-6G (1A8, Biolegend, 127639), anti-mouse Ly-6C(HK1.4, Biolegend, 128011), anti-mouse CD11c (N418, Biolegend, 117313), anti-mouse CD103 (2E7, Biolegend, 121425), anti-mouse I-A/I-E (M5/114.15.2 Biolegend, 107611), anti-mouse/human CD11b (M1/70, Biolegend, 101254) and anti-mouse CD45 antibodies (30-F11, Biolegend, 103105) conjugated to fluorophores. Isolated cells were stained with Live/dead®-Aqua (Life Technologies) to distinguish live cells. Stained cells were fixed using 1% paraformaldehyde prior to analysis. Data acquisition was performed on a Fortessa cytometer (BD) followed by analysis on FlowJo software (Tree Star).

[2] = system: lung carcinoma (LLC cell line); experiment: NIR-II fluorescence imaging of subcutaneous LLC tumor-bearing C57BL/6 mice; format: in vivo, mouse
Description: General NIR-II fluorescence imaging: A 640×512-pixel InGaAs camera (Ninox640, Raptor Photonics) and macro zoom lens (0-10×; Navitar Zoom 7000 with SWIR coating) along with 900, 1070, 1100, and 1200 nm long-pass (LP) filters from either Thorlab or Edmund optics were used to collect the NIR-II signal. InGaAs camera played a role as an open-air imaging system along with the support of the FLARE system. An 808 nm fiber-coupled diode laser ([…] at the sample) was used as an excitation source. Data acquisition was done using in-house developed software. […] Mice were imaged with intact skin using InGaAs camera. At least 3 mice were analyzed for each sample. Tumor-bearing mouse models: Animals were housed in an AAALAC-certified facility and were studied under the protocols approved by the MGH IACUC (2016N000136). Mice were maintained under anesthesia with isoflurane and oxygen during the experiment. To establish the various tumor-bearing mouse models including lung carcinoma, pancreatic ductal adenocarcinoma (PDAC), and triple negative breast adenocarcinoma, eight-week-old C57BL/6 mice (Taconic Farms, Germantown, NY) were subcutaneously injected with 2×10^5 LLC, Pan02, and E0771 cells suspended in DMEM/Matrigel (100 μL, 50 v/v %) in the flank region, respectively. Female C57BL/6 mice were used for the breast cancer (E0771) model, otherwise male mice were used. […] Statistical analysis: The fluorescence and background intensities of a region of interest over each tissue were quantified using customized imaging software and ImageJ v1.48 (National Institutes of Health, Bethesda, MD). The signal-to-background ratio (SBR) was calculated as SBR=fluorescence/background, where background was the fluorescence intensity of muscle. Data were reported as mean±s.e.m. with a minimum of three biological replicates. Student's t-test statistical analysis was performed to evaluate the significance of the experimental data. The differences among groups were determined using one-way ANOVA analysis to assess the statistical differences among more than two groups. […] The data was indicated with *p<0.05, ** p<0.01, *** p<0.001, and **** p<0.0001.

[3] = system: PDAC (Pan02 cell line); experiment: Tumor targeting in Pan02 inoculated immune-deficient athymic nude mice; format: in vivo, mouse
Description: General NIR-II fluorescence imaging: A 640×512-pixel InGaAs camera (Ninox640, Raptor Photonics) and macro zoom lens (0-10×; Navitar Zoom 7000 with SWIR coating) along with 900, 1070, 1100, and 1200 nm long-pass (LP) filters from either Thorlab or Edmund optics were used to collect the NIR-II signal. InGaAs camera played a role as an open-air imaging system along with the support of the FLARE system. An 808 nm fiber-coupled diode laser ([…] at the sample) was used as an excitation source. Data acquisition was done using in-house developed software. The mice fur on the region of interest was shaved prior to imaging using a clipper and removed completely using a depilatory cream. 100 μL of SH1 in 5 w/v % BSA saline ([…]) was injected through the tail vein. Mice were imaged with intact skin using InGaAs camera. At least 3 mice were analyzed for each sample.
Statistical analysis: The fluorescence and background intensities of a region of interest over each tissue were quantified using customized imaging software and ImageJ v1.48 (National Institutes of Health, Bethesda, MD). The signal-to-background ratio (SBR) was calculated as SBR=fluorescence/background, where background was the fluorescence intensity of muscle. […] The differences among groups were determined using one-way ANOVA analysis to assess the statistical differences among more than two groups. […]

[4] = Serum protein binding kinetics (size exclusion column); format: in vitro ADME; conditions: bovine, FBS/PBS 50/50 v/v % (serum proteins, mostly albumin), pH 7.4; within 30 min, FBS/PBS 50/50, 37° C.
Method: FIG. 15 Reaction kinetics of SH1, ICG, and IR-780 to serum proteins, mostly albumin. 50 nmol of each dye was mixed with 1 ml of FBS/PBS (pH 7.4) 50/50 v/v %, incubated at 37° C., and analyzed using a BioResolve size exclusion column (200 Å, 2.5 μm, 7.8×300 mm). The binding percentage was calculated by dividing by absorbance of bound dye at 24 h assuming the dyes can bind in maximum capacity in the protein at 24 h.

Q: With `CCCCN1/C(=C/C=C2\CCCC(/C=C/C3=[N+](CCCC)c4ccc(Cl)cc4C3(C)C)=C2Cl)C(C)(C)c2cc(Cl)ccc21` [SH1, 1-butyl-2-((E)-2-((E)-3-(2-((E)-1-butyl-5-chloro-3,3-dimethylindolin-2-ylidene)ethylidene)-2-chlorocyclohex-1-en-1-yl)vinyl)-5-chloro-3,3-dimethyl-3H-indol-1-ium] as the compound, how does the “targeted tumor-associated immune cells” value ([1]; CD11b+ DCs) read?
A: Its value is 45.4%.

Q: What about the “targeted tumor-associated immune cells” value ([1]; CD103+ DCs) of the same compound?
A: Its value is 23.8%.

Q: What about the “targeted tumor-associated immune cells” value ([1]; Ly6C^high monocyte) of the same compound?
A: Its value is 48.6%.

Q: And the “targeted tumor-associated immune cells” value ([1]; Ly6C^low monocyte)?
A: The value was 43.1%.

Q: What about the “targeted tumor-associated immune cells” value ([1]; Macrophage) of the same compound?
A: The value was 45.7%.

Q: What about the “cells identified as targeted TAICs in the tumor region” value ([1]; tumor) of the same compound?
A: The value was “macrophages, Ly6C^low monocytes, and dendritic cells”.

Q: What about the “tumor targeting / tumor signal” value ([2]; intravenous, NIR-II imaging until 48 h post-injection) of the same compound?
A: Its value is “superb signal intensity in tumor area”.

Q: And the TBR ([2]; larger-sized lung tumors)?
A: The TBR was 23.7.

Q: What about the “tumor-to-muscle signal ratio (TMR)” value [3] of the same compound?
A: The value was ~3.0 and 3.6.

Q: And the fraction unbound at 30 min, 50 μM [4]?
A: Its fraction unbound at 30 min, 50 μM is ~0.65.
